Assay results as given in publication PMC5914528 (Molecular microbiology, 2018).
pEC50: −log10 of the molar value.

Key:
[1] = molecular target: T1, QscR (Pseudomonas aeruginosa, UniProt G3XD77); type: cell-based; conditions: for Activation (%): 100% = activity of 3OC12-HSL
[2] = molecular target: LasR (Pseudomonas aeruginosa, UniProt P25084); test: LasR agonism/antagonism assay, E. coli reporter strain; type: cell-based; conditions: Table S2 (supplement not shown)
[3] = molecular target: T1, QscR; conditions: DNA binding of QscR with ligand; Eqn 5

LasR, sequence (P25084 whole entry): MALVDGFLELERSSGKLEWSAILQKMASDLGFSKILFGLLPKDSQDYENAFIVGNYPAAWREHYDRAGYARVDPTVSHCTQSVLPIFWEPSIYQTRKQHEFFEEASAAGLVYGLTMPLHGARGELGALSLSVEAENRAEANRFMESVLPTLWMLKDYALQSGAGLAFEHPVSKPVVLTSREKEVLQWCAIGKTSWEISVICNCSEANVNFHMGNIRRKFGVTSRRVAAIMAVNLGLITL

`O=C(CCCOc1ccc(Cl)cc1)NC1CCOC1=O` (stereo not drawn) [CL] was tested, and the “Activation (%)” value [1] was 86%, the pEC50 ([1]; E. coli JLD271 QscR reporter) was 7.80 and the “activity on LasR in cell-based reporter assays” value [2] was “inhibited”. For the same molecule, the Hill coefficient [3] was 1.9 ± 0.3.

For `CCCCCCCCCC(=O)CC(=O)N[C@H]1CCOC1=O` [3OC12-HSL, N-(3-oxododecanoyl) L-homoserine lactone], the “Activation (%)” value [1] was 100% and the Hill coefficient [3] was 1.7 ± 0.4.
